# Measured values as given in patent publication US12162840B2, “Herbicidal compositions” (SYNGENTA PARTICIPATIONS AG, priority 2018, dated 2024).
# System: cool season plant species
# Assay: B2 Post-emergence efficacy Test 2, cool season plant species
# Type: in vivo
# Conditions: 15 days after application, 0=no damage, 100=total kill
# Experimental: Seeds of a variety of test species (see Table B1) were sown in standard soil in pots. After cultivation for 12 days (post-emergence) under controlled conditions in a glasshouse (at 24/18° C. or 20/16° C., at day/night; 16 hours light; 65% humidity), the plants were sprayed with an aqueous spray solution derived from the formulation of the technical active ingredient dissolved in IF50 (see Table B2 for composition) and adjuvant (Genapol XO80) was added to the spray solution at a rate of 0.2% v/v. [table] [table] After application, the test plants were grown in a glasshouse under controlled conditions (as above) and watered twice daily. Herbicidal activity was evaluated 15 days after application on a 0-100 scale. The results, where 0=no damage to test plant and 100=total kill of test plant are shown below in Tables 6 to 9.
compound,measurement,setting,value
Cc1nn(C)c(=O)c(-c2c(F)ccc(Cl)c2CCc2ccc(F)cc2)c1O [Compound 1.048],Herbicidal activity (0-100 scale) ALOMY,15 g/Ha,20
same,Herbicidal activity (0-100 scale) ALOMY,30 g/Ha,30
same,Herbicidal activity (0-100 scale) ALOMY,60 g/Ha,70
same,Herbicidal activity (0-100 scale) ALOMY,125 g/Ha,80
same,Herbicidal activity (0-100 scale) ALOMY,250 g/Ha,80
same,Herbicidal activity (0-100 scale) ALOMY,500 g/Ha,90
same,Herbicidal activity (0-100 scale) AVEFA,15 g/Ha,10
same,Herbicidal activity (0-100 scale) AVEFA,30 g/Ha,30
same,Herbicidal activity (0-100 scale) AVEFA,60 g/Ha,60
same,Herbicidal activity (0-100 scale) AVEFA,125 g/Ha,80
same,Herbicidal activity (0-100 scale) AVEFA,250 g/Ha,90
same,Herbicidal activity (0-100 scale) AVEFA,500 g/Ha,90
same,Herbicidal activity (0-100 scale) BEAVA,15 g/Ha,70
same,Herbicidal activity (0-100 scale) BEAVA,30 g/Ha,80
same,Herbicidal activity (0-100 scale) BEAVA,60 g/Ha,80
same,Herbicidal activity (0-100 scale) BEAVA,125 g/Ha,90
same,Herbicidal activity (0-100 scale) BEAVA,250 g/Ha,90
same,Herbicidal activity (0-100 scale) BEAVA,500 g/Ha,90
same,Herbicidal activity (0-100 scale) BROTE,15 g/Ha,0
same,Herbicidal activity (0-100 scale) BROTE,30 g/Ha,10
same,Herbicidal activity (0-100 scale) BROTE,60 g/Ha,20
same,Herbicidal activity (0-100 scale) BROTE,125 g/Ha,50
same,Herbicidal activity (0-100 scale) BROTE,250 g/Ha,60
same,Herbicidal activity (0-100 scale) BROTE,500 g/Ha,70
same,Herbicidal activity (0-100 scale) BRSNN,15 g/Ha,90
same,Herbicidal activity (0-100 scale) BRSNN,30 g/Ha,90
same,Herbicidal activity (0-100 scale) BRSNN,60 g/Ha,90
same,Herbicidal activity (0-100 scale) BRSNN,125 g/Ha,90
same,Herbicidal activity (0-100 scale) BRSNN,250 g/Ha,90
same,Herbicidal activity (0-100 scale) BRSNN,500 g/Ha,90
same,Herbicidal activity (0-100 scale) CHEAL,125 g/Ha,70
same,Herbicidal activity (0-100 scale) CHEAL,250 g/Ha,90
same,Herbicidal activity (0-100 scale) CHEAL,500 g/Ha,100
same,Herbicidal activity (0-100 scale) GALAP,15 g/Ha,20
same,Herbicidal activity (0-100 scale) GALAP,30 g/Ha,30
same,Herbicidal activity (0-100 scale) GALAP,60 g/Ha,50
same,Herbicidal activity (0-100 scale) GALAP,125 g/Ha,60
same,Herbicidal activity (0-100 scale) GALAP,250 g/Ha,60
same,Herbicidal activity (0-100 scale) GALAP,500 g/Ha,80
same,Herbicidal activity (0-100 scale) HORVW,15 g/Ha,10
same,Herbicidal activity (0-100 scale) HORVW,30 g/Ha,10
same,Herbicidal activity (0-100 scale) HORVW,60 g/Ha,10
same,Herbicidal activity (0-100 scale) HORVW,125 g/Ha,40
same,Herbicidal activity (0-100 scale) HORVW,250 g/Ha,40
same,Herbicidal activity (0-100 scale) HORVW,500 g/Ha,80
same,Herbicidal activity (0-100 scale) KCHSC,15 g/Ha,0
same,Herbicidal activity (0-100 scale) KCHSC,30 g/Ha,0
same,Herbicidal activity (0-100 scale) KCHSC,60 g/Ha,10
same,Herbicidal activity (0-100 scale) KCHSC,125 g/Ha,20
same,Herbicidal activity (0-100 scale) KCHSC,250 g/Ha,50
same,Herbicidal activity (0-100 scale) KCHSC,500 g/Ha,80
same,Herbicidal activity (0-100 scale) LOLPE,15 g/Ha,20
same,Herbicidal activity (0-100 scale) LOLPE,30 g/Ha,40
same,Herbicidal activity (0-100 scale) LOLPE,60 g/Ha,90
same,Herbicidal activity (0-100 scale) LOLPE,125 g/Ha,90
same,Herbicidal activity (0-100 scale) LOLPE,250 g/Ha,90
same,Herbicidal activity (0-100 scale) LOLPE,500 g/Ha,90
same,Herbicidal activity (0-100 scale) POAAN,15 g/Ha,30
same,Herbicidal activity (0-100 scale) POAAN,30 g/Ha,30
same,Herbicidal activity (0-100 scale) POAAN,60 g/Ha,80
same,Herbicidal activity (0-100 scale) POAAN,125 g/Ha,80
same,Herbicidal activity (0-100 scale) POAAN,250 g/Ha,90
same,Herbicidal activity (0-100 scale) POAAN,500 g/Ha,90
same,Herbicidal activity (0-100 scale) POLCO,15 g/Ha,60
same,Herbicidal activity (0-100 scale) POLCO,30 g/Ha,70
same,Herbicidal activity (0-100 scale) POLCO,60 g/Ha,90
same,Herbicidal activity (0-100 scale) POLCO,125 g/Ha,90
same,Herbicidal activity (0-100 scale) POLCO,250 g/Ha,90
same,Herbicidal activity (0-100 scale) POLCO,500 g/Ha,90
same,Herbicidal activity (0-100 scale) SINAR,15 g/Ha,40
same,Herbicidal activity (0-100 scale) SINAR,30 g/Ha,80
same,Herbicidal activity (0-100 scale) SINAR,60 g/Ha,80
same,Herbicidal activity (0-100 scale) SINAR,125 g/Ha,90
same,Herbicidal activity (0-100 scale) SINAR,250 g/Ha,90
same,Herbicidal activity (0-100 scale) SINAR,500 g/Ha,90
same,Herbicidal activity (0-100 scale) STEME,15 g/Ha,90
same,Herbicidal activity (0-100 scale) STEME,30 g/Ha,90
same,Herbicidal activity (0-100 scale) STEME,60 g/Ha,90
same,Herbicidal activity (0-100 scale) STEME,125 g/Ha,100
same,Herbicidal activity (0-100 scale) STEME,250 g/Ha,100
same,Herbicidal activity (0-100 scale) STEME,500 g/Ha,100
same,Herbicidal activity (0-100 scale) TRZAW,15 g/Ha,0
same,Herbicidal activity (0-100 scale) TRZAW,30 g/Ha,10
same,Herbicidal activity (0-100 scale) TRZAW,60 g/Ha,20
same,Herbicidal activity (0-100 scale) TRZAW,125 g/Ha,20
same,Herbicidal activity (0-100 scale) TRZAW,250 g/Ha,50
same,Herbicidal activity (0-100 scale) TRZAW,500 g/Ha,80
same,Herbicidal activity (0-100 scale) VERPE,15 g/Ha,60
same,Herbicidal activity (0-100 scale) VERPE,30 g/Ha,80
same,Herbicidal activity (0-100 scale) VERPE,60 g/Ha,90
same,Herbicidal activity (0-100 scale) VERPE,125 g/Ha,80
same,Herbicidal activity (0-100 scale) VERPE,250 g/Ha,100
same,Herbicidal activity (0-100 scale) VERPE,500 g/Ha,100
